According to patent US20130224239A1, “ALCOHOLIC EXTRACT OF FUNGI OF GENUS […] AND USE THEREOF” (KING SAUD UNIVERSITY, priority 2011, published 2013):

What was measured:
Assay in all cases: Antimicrobial screening, disc diffusion
Assay type in all cases: cell-based
[1] = test system: Salmonella typhimuium (RCMB 0104); conditions: Salmonella typhimuim; compounds isolated from Cunninghamella elegans
Method: (§1) The alcoholic extracts obtained were used for testing their antimicrobial activity. Each extract (0.5 g) was dissolved in 10 ml water. Same concentrations for the successive extracts (using diethyl ether, chloroform, ethyl acetate and n-butanol) were also prepared.
(§2) The representatives of Gram negative bacteria, namely Salmonella typhimuium (RCMB 0104), Escherichia coli (RCMB 0103), Pseudomonas aeruginosa (RCMB 0102) and Gram positive bacteria, namely Bacillus subtilis (RCMB 0107), Staphylococcus aureus (RCMB 0106), Streptococcus pyogenes (RCMB 0109), unicellular fungi, namely Candida albicans (RCMB 5002) and filamentous fungi, namely Aspergillus fumigatus (RCMB 2003) and Penicllium expansum (RCMB 1006) were used as test organisms (RCMB: The Regional Center for Mycology and Biotechnology, Al-azhar University Nasser City, Cairo, Egypt).
(§3) For antimicrobial screening the well known disc diffusion and agar well diffusion methods were used, together with the determination of minimum inhibitory concentration (MIC), see Duguid et al., Microbial Infections, The English Language Book Society, Churchill Livingston, Edingburgh, London, 1978; vol. 1, page 110.
(§4) Disc diffusion method: The agar disc diffusion method is employed for the determination of antimicrobial activities of the extracts of the investigated fungal species. Sterilized paper discs (Whatman No. 1) ([…]) were separately soaked in the extracts and transferred onto the surface of growth media seeded with the test organism. After incubation period, following suitable conditions for the test organism, the diameter of the inhibition zone around the discs was measured in millimeters.
Each fungal species was grown on malt extract media at 28±2° C. for 14 days. The metabolites of the fungal species were screened for antimicrobial activity.

[2] = test system: Aspergillus fumigatus (RCMB 2003); conditions: compounds isolated from Cunninghamella elegans
Method: as §1, §2, §3
as §4, with “millimeters. The obtained result was the mean of three experiments.” for “millimeters.”
(§5) Each fungal species was grown on malt extract media at 28±2° C. for 14 days. The metabolites of the fungal species were screened for antimicrobial activity. The inhibition zones around each disc were measured, in millimeter, and recorded (Tables 1).

[3] = test system: Penicllium expansum (RCMB 1006); conditions: Penicillium expansum; compounds isolated from Cunninghamella elegans
Method: as §1, §2, §3
as §4, with “millimeters. The obtained result was the mean of three experiments.” for “millimeters.”
as §5

[4] = test system: Streptococcus pyogenes (RCMB 0109); conditions: compounds isolated from Cunninghamella elegans
Method: as §1, §2, §3
as §4, with “millimeters. The obtained result was the mean of three experiments.” for “millimeters.”
as §5

[5] = test system: Escherichia coli (RCMB 0103); conditions: compounds isolated from Cunninghamella elegans
Method: as §1, §2, §3
as §4, with “millimeters. The obtained result was the mean of three experiments.” for “millimeters.”
as §5

[6] = test system: Pseudomonas aeruginosa (RCMB 0102); conditions: Pseudomonas aeurginosa; compounds isolated from Cunninghamella elegans
Method: as §1, §2, §3
as §4, with “millimeters. The obtained result was the mean of three experiments.” for “millimeters.”
as §5

[7] = test system: Staphylococcus aureus (RCMB 0106); conditions: compounds isolated from Cunninghamella elegans
Method: as §1, §2, §3
as §4, with “millimeters. The obtained result was the mean of three experiments.” for “millimeters.”
as §5

[8] = test system: Bacillus subtilis (RCMB 0107); conditions: compounds isolated from Cunninghamella elegans
Method: as §1, §2, §3
as §4, with “millimeters. The obtained result was the mean of three experiments.” for “millimeters.”
as §5

[9] = test system: Candida albicans (RCMB 5002); conditions: compounds isolated from Cunninghamella elegans
Method: as §1, §2, §3
as §4, with “millimeters. The obtained result was the mean of three experiments.” for “millimeters.”
as §5

Measured: Diameter of inhibition zone

Nc1ncnc2c1ncn2C1OC(CO)C(O)C1O (stereo not shown) [Compound 4, 2-(6-amino-9H-purine-9-yl)-5-(hydroxymethyl)oxolane-3,4-diol]
30.0 ± 0.1 mm: [7]
30.0±0.01 mm: [7]; listed as compound 4
00.0 mm: [1] | [2] | [3] | [4] | [5] | [6] | [8] | [9]
